Source: the supplement of paper PMC11208160

Assay: recombinant barcode read abundance after kanamycin selection (control-corrected) (log10(CPM+1)); higher = more efficient recombination; sequences stand for … in AGTGCAGAGAAAATCGGCCAGTTTTCTCTGCCTGCAGTCCGCATGCCGT…AGATTTATGCAGCGGACTGCCTTTCTCCCAAAGTGATAAACCGGACAGTATCATGGACCGGTTTTCCCGGTAATCCGTATTTGCAAGGTTGGTTTCACT; site = the 11-nt target
Procedure: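 Pooled E. coli target-specificity screen for the IS621 bridge recombinase. Each library plasmid pairs an 11-nt target (CT core) with a bridge RNA whose target-binding loop (9-nt LTG + 4-nt RTG) is reprogrammed; the rest of the 177-nt WT IS621 bridge RNA scaffold is fixed. The plasmid is co-electroporated with a WT donor plasmid; recombinase is induced with 0.1 mM IPTG and recombinants are selected on kanamycin. Recombinant barcodes are sequenced, converted to CPM, averaged over two biological replicates and corrected by the unselected control CPM. Molecule = full bridge RNA written as DNA: LTG = specificity nt 1-9, RTG = reverse complement of specificity nt 8-11, in the WT scaffold.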
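Note: IS621 recombinase and bridge RNA in Escherichia coli cells.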

Row | Sequence | recombinant barcode read abundance (log10)
1 | CCGCCCGCTTGGGTTCTAACCTGTTGCCT (site CCGCCTGCTAG) | 0.0828
2 | GAGTTGCCTTGGGTTCTAACCTGTTGCCT (site GCGTTGCCTAG) | 0.107
3 | CTCCGAACTTGGGTTCTAACCTGTTGCTT (site CTCCGAACTAA) | 0.144
4 | GCGTATCCTTGGGTTCTAACCTGTTGCCT (site GCGGATCCTAG) | 0.23
5 | CTGGCGTCTTGGGTTCTAACCTGTTGCCT (site CTGGCGTCTAG) | 1.1
6 | ACAGTGGCTTGGGTTCTAACCTGTTGCGG (site CTTCGCCCTAA) | 0.0955
7 | TAACAGTCTTGGGTTCTAACCTGTTGCGT (site TAACAGTCTAC) | 2.85
8 | AGCTTTGCTTGGGTTCTAACCTGTTGCCT (site AGCCTTGCTAG) | 0.171
9 | TGTATGACTTGGGTTCTAACCTGTTGCCT (site AGTATGACTAG) | 0.65
10 | TAACCGTCTTGGGTTCTAACCTGTTGCAT (site TAACAGTCTAC) | 0.179
11 | TAGGATACTTGGGTTCTAACCTGTTGCAT (site TAGGATACTAT) | 1.55
12 | TGCTTACCTTGGGTTCTAACCTGTTGCCT (site AGCTTACCTAG) | 0.0889
13 | ATGGGCCCTTGGGTTCTAACCTGTTGCTG (site ATGGGCCCTAA) | 0.13
14 | GGGGACTCTTGGGTTCTAACCTGTTGCAC (site GGGGACTCTGT) | 3.1
15 | GAGTCGCCTTGGGTTCTAACCTGTTGCGG (site GAGTGGCCTCC) | 0.188
16 | GCACTAACTTGGGTTCTAACCTGTTGCCT (site GCACTAGCTAC) | 0.216
17 | TAAGATCCTTGGGTTCTAACCTGTTGCCT (site TAAGATCCTAG) | 1.63
18 | CGCAGCACTTGGGTTCTAACCTGTTGCCT (site CGCAGCACTAG) | 0.63
19 | CACTTCCCTTGGGTTCTAACCTGTTGCTT (site CACTTCCCTAC) | 0.0814
20 | TTGGACGCTTGGGTTCTAACCTGTTGCCT (site TTGGCCGCTAG) | 0.335
21 | ATGCGAGCTTGGGTTCTAACCTGTTGCTG (site ATGCGAGCTCT) | 0.76

Row | Sequence | recombinant barcode read abundance (log10)
22 | TGGAAGTCTTGGGTTCTAACCTGTTGCTT (site TGAAAGCCTAA) | 0
23 | TGGACTACTTGGGTTCTAACCTGTTGCTC (site TGGACTACTGA) | 0.195
24 | GCTCAACCTTGGGTTCTAACCTGTTGCCT (site GCTCAACCTAG) | 1.6
25 | TTCAAATCTTGGGTTCTAACCTGTTGCCT (site TTCAAAGCTAG) | 0.182
26 | CTGTGAGCTTGGGTTCTAACCTGTTGCAG (site CTGTGAGCTCT) | 1.47
27 | TAACCTACTTGGGTTCTAACCTGTTGCCT (site TAACCTGCTAG) | 0.0455
28 | TGCTAAGCTTGGGTTCTAACCTGTTGCTG (site TGCTAAGCTCA) | 0.16
29 | GACCCACCTTGGGTTCTAACCTGTTGCCT (site TACCCACCTAG) | 1.4
30 | TCTTCGACTTGGGTTCTAACCTGTTGCAG (site TCTTCGACTCT) | 0.111
31 | ATTTGAACTTGGGTTCTAACCTGTTGCCT (site ATTTGGACTAG) | 0.148
32 | GACCCATCTTGGGTTCTAACCTGTTGCCT (site GACCCATCTAG) | 0.683
33 | ATAGGTTCTTGGGTTCTAACCTGTTGCCT (site ACAGGTTCTAG) | 0.0769
34 | ATAGAGTCTTGGGTTCTAACCTGTTGCTT (site ATAGAGTCTAA) | 2.52
35 | TGTCGGCCTTGGGTTCTAACCTGTTGCTT (site TGTCGGCCTAA) | 0
36 | AGTACTCCTTGGGTTCTAACCTGTTGCTG (site AATACTACTCA) | 0.085
37 | CTTCGAGCTTGGGTTCTAACCTGTTGCAG (site CTTCGAGCTCC) | 0.288
38 | GTTTAATCTTGGGTTCTAACCTGTTGCAT (site GTTTAATCTAT) | 0.343
39 | GGGTTTGCTTGGGTTCTAACCTGTTGCCT (site GCGTTTGCTAG) | 0.0869
40 | TGCTTACCTTGGGTTCTAACCTGTTGCCT (site GGCTTACCTAG) | 0.185
41 | CTCGGGCCTTGGGTTCTAACCTGTTGCCT (site CTCGGGCCTAG) | 0.144
42 | GCGGGTCCTTGGGTTCTAACCTGTTGCGT (site GCGGGTCCTAC) | 2.98

Row | Sequence | recombinant barcode read abundance (log10)
43 | CGGTCGCCTTGGGTTCTAACCTGTTGCAT (site CGGTTGCCTAC) | 0.153
44 | GAAACAGCTTGGGTTCTAACCTGTTGCCT (site GATACAGCTAG) | 0.158
45 | TCGGATACTTGGGTTCTAACCTGTTGCCT (site TCGGATACTAT) | 0.0399
46 | CCTGGTCCTTGGGTTCTAACCTGTTGCCT (site CCTGGGGCTAG) | 0.16
47 | AGAAGTCCTTGGGTTCTAACCTGTTGCTG (site AGAAGTCCTCT) | 0.773
48 | CTTCGTCCTTGGGTTCTAACCTGTTGCAT (site CTTCGTCCTAG) | 0.139
49 | ACCTCTTCTTGGGTTCTAACCTGTTGCTA (site ACCTCTTCTTA) | 0.141
50 | GTCTATACTTGGGTTCTAACCTGTTGCCT (site GTTTATACTAG) | 0.311
51 | GGCACCACTTGGGTTCTAACCTGTTGCGT (site GGCACCACTAC) | 1.58
52 | GAGTCTACTTGGGTTCTAACCTGTTGCTT (site GATTCTACTAA) | 0.0603
53 | TAACCTACTTGGGTTCTAACCTGTTGCTA (site GGTGAGGCTAT) | 0.0991
54 | CACTCACCTTGGGTTCTAACCTGTTGCGG (site CACTCACCTCC) | 1.38
55 | GAGTCGGCTTGGGTTCTAACCTGTTGCTT (site GAGGCGGCTAA) | 0.0495
56 | ATCGGATCTTGGGTTCTAACCTGTTGCCT (site ATCGGAACTAG) | 0.195
57 | CGGAATGCTTGGGTTCTAACCTGTTGCCT (site CGCAATGCTAG) | 0.0762
58 | CTATTCCCTTGGGTTCTAACCTGTTGCCT (site CTATTCGCTAG) | 0.286
59 | CACTATCCTTGGGTTCTAACCTGTTGCGG (site CACTATCCTCC) | 1.5
60 | ATACGTTCTTGGGTTCTAACCTGTTGCAT (site ATACGTTCTAT) | 1.12
61 | AGGCGCCCTTGGGTTCTAACCTGTTGCAA (site AGGCGCCCTCT) | 0.0506
62 | CGTCCGACTTGGGTTCTAACCTGTTGCAT (site CGTGCGACTAT) | 0.0838
63 | GTAGAGTCTTGGGTTCTAACCTGTTGCTT (site GTGGAGTCTAG) | 0.685

Row | Sequence | recombinant barcode read abundance (log10)
64 | GAGTCGCCTTGGGTTCTAACCTGTTGCGG (site GAGTCGCCTCC) | 1.22
65 | TGTATGACTTGGGTTCTAACCTGTTGCCT (site TGTATGACTAG) | 0.46
66 | TGCTGTACTTGGGTTCTAACCTGTTGCCT (site TGCTGTCCTAG) | 0.0484
67 | AGAGGGTCTTGGGTTCTAACCTGTTGCCT (site ACAGGGTCTAG) | 0.731
68 | CGACGAGCTTGGGTTCTAACCTGTTGCGG (site CGACGAGCTCC) | 1.22
69 | AGGACGACTTGGGTTCTAACCTGTTGCCT (site AGGACGACTAG) | 0.376
70 | TCCAAATCTTGGGTTCTAACCTGTTGCCT (site AGACTGACTCC) | 0.109
71 | TAGGATACTTGGGTTCTAACCTGTTGCAC (site TAGGATACTAT) | 0.34
72 | TGGATGGCTTGGGTTCTAACCTGTTGCCT (site TGGATGGCTAG) | 0.17
73 | TAGCTCCCTTGGGTTCTAACCTGTTGCCC (site TAGCTCCCTTG) | 0.0924
74 | TGACGTCCTTGGGTTCTAACCTGTTGCGT (site TGACGTCCTAT) | 0.286
75 | TAGACCACTTGGGTTCTAACCTGTTGCAC (site CTATATGCTAA) | 0.0777
76 | AAGAGTCCTTGGGTTCTAACCTGTTGCGT (site AAAAGTCCTAG) | 0.423
77 | CCGTGCCCTTGGGTTCTAACCTGTTGCTG (site CCGGACCCTCA) | 0.111
78 | GAGTCGGCTTGGGTTCTAACCTGTTGCTT (site GAGTCGGCTAA) | 0.778
79 | CTCTAGTCTTGGGTTCTAACCTGTTGCGT (site CTCTAGTCTAC) | 2.54
80 | CCGCGGCCTTGGGTTCTAACCTGTTGCCT (site ACGCGGCCTAG) | 0.0555
81 | GCGGACGCTTGGGTTCTAACCTGTTGCCT (site GCGGACGCTAG) | 1.72
82 | CGTCTAGCTTGGGTTCTAACCTGTTGCCA (site CGTCTAGCTTG) | 0.0938
